Series [1] deals with Ramos-Blue Cells NF-kB/AP-1 Reporter B lymphocytes. In words: Ramos NFkb Reporter Assay. The note with it: 1 uM to 64 pM CpG, 24 h; compared to 12070 and ODN2006. The class given is cell-based, human. As for the experimental part: For Ramos NFkb Reporter Assay, Ramos-Blue Cells NF-kB/AP-1 Reporter B lymphocytes were purchased from Invivogen. Cells were grown and maintained in complete DMEM supplemented with 2 mM L-glutamine, 10% FBS, 100 ug/mL Normacin, Pen-Strep, 100 ug/mL Zeocin. Stimulation of the Ramos-Blue cells was performed. Briefly, cells were rinsed in growth medium without antibiotics. Cells were counted and resuspended in fresh complete DMEM without selection antibiotics at a density of 2×10^6 cell/mL. 20 uL of 10 uM CpG 7-7, CpG 12070 and ODN2006 titrated 1:5 were added to a flat-bottom 96-well plate, 180 uL of the cell suspension were added to a final concentration of 1 uM to 64 pM of CpG. Plate was incubated at 37° C. in a 5% CO2 incubator for 24 h. On day of assay, QB reagent and QB buffer were thawed before us. Quanti-Blue solution was prepared by adding 1 mL of QB reagent and […] QB buffer to 98 mL of sterile water in a sterile glass bottle. 180 μL of Quanti-Blue solution was dispensed per well into a new flat-bottom 96-well plate. 20 μL of supernatant from treated Ramos-Blue cells was then added to the 96-well plate. Plate was ten incubated for 6 h. Optical density was measured at OD655 using a plate reader (Molecular Devices), and data was tabulated in GraphPad Prism 9.0.
For orientation: In a reporter assay the amount or activity of a reporter protein is the signal.

Series [2] relates to PBMC cells from three different donor lines (D559, D804 and D643). In words: CpG activity on PBMCs from different donors (CD40 expression). The format is cell-based, human. The settings on record: PBMCs of donors D559, D804 and D643; compared with 12070. On the procedure: Trima residuals were received from Vitalant and diluted 1:2 with Phosphate Buffered Saline (PBS, Gibco). Diluted blood was split into two tubes and underplayed with 15 mL Ficoll-Paque (GE Healthcare). Tubes were centrifuged for 30 minutes at 400×g. PBMCs were collected from the interface, resuspended and washed in FACS buffer (PBS with 0.5% Bovine Serum Albumin (Gibco)). After one wash, PBMCs were resuspended in Complete RPMI (RPMI+10% FBS).
PBMCs were immediately plated onto a 96-well format (500K/well) in Complete RPMI. Five-fold serial dilutions were added to the cells from 1 uM to 64 pM of CpG oligonucleotides at 37° C. under 5% CO2 for 48 hours. Cells were pelleted by centrifugation for five minutes at 400×g and stained at 4° C. in Fixable Viability Dye eFluor 780 (Thermo Fisher) diluted 1:4000 in PBS. Cells were centrifuged and stained at 4° C. in FACS buffer for 30 minutes containing FcR Blocking Reagent (Miltenyi Biotec), anti-CD19, anti-CD20, anti-CD40, anti-HLADR and anti-CD80. Cells were centrifuged and washed twice in FACS buffer and fixed in 0.5% paraformaldehyde. Cells were analyzed on Attune NxT Flow Cytometer (Thermo Fisher), with subsequent data analysis by Flowjo 10.7 (Treestar). Dead cells were excluded by gating on the eFluor 780-negative population. B cells were identified as CD19+CD20+ cells and level of activation marker was assessed by median fluorescent intensity. […]

Series [3] relates to CD14+ monocytes and dendritic cells. In words: CD40 activation in myeloid cells by unconjugated CpG oligonucleotides. The settings on record: human myeloid cells; 40 nM, 48 hours; compared to the 12070 CpG oligonucleotide. The format is cell-based. On the procedure:
Trima residuals were received from Vitalant and diluted 1:3 with Phosphate Buffered Saline (PBS, Gibco). Diluted blood was underplayed with 15 mL Ficoll-Paque (GE Healthcare). Tubes were centrifuged for 30 minutes at 400×g with break off. PBMCs were collected from the interface, resuspended and washed in FACS buffer (PBS with 0.5% Bovine Serum Albumin (Gibco)). After one wash, PBMCs were resuspended in Complete RPMI (RPMI+10% FBS). PBMCs were immediately plated onto a 96-well format (1e6/well) in Complete RPMI. CpG oligonucleotides were incubated with the cells at 40 nM concentration at 37° C. under 5% CO2 for 48 hours. Cells were pelleted by centrifugation for five minutes at 400×g and stained at 4° C. in Fixable Viability Dye eFluor 780 (Thermo Fisher) diluted 1:5000 in PBS. Cells were centrifuged and stained at 4° C. in FACS buffer for 60 minutes containing FcR Blocking Reagent (Miltenyi Biotec), anti-CD14, anti-CD11c, anti-CD3, anti-CD19, anti-CD56, anti-CD16, anti-HLADR, anti-CD40, and anti-CD86 (Thermo Fisher, Biolegend). Cells were centrifuged and washed twice in FACS buffer and fixed in 0.5% paraformaldehyde. Cells were analyzed on Attune NxT Flow Cytometer (Thermo Fisher), with subsequent data analysis by Flowjo 10.7 (Treestar). Dead cells were excluded by gating on the eFluor 780-negative population. […] Levels of activation marker were assessed by median fluorescent intensity.

For series [4], the system named is dendritic cells. Kind of series: Dendritic cell activation (CD40) in human PBMCs. The format is cell-based. The note with it: 24 hours. On the procedure: Trima residuals were received from Vitalant and diluted 1:3 with Phosphate Buffered Saline (PBS, Gibco). Diluted blood was underplayed with 15 mL Ficoll-Paque (GE Healthcare). Tubes were centrifuged for 30 minutes at 400×g with break off. PBMCs were collected from the interface, resuspended and washed in FACS buffer (PBS with 0.5% Bovine Serum Albumin (Gibco)). After one wash, PBMCs were resuspended in Complete RPMI (RPMI, 10% FBS, 1× Pen/Strep, 1× Glutamax). PBMCs were immediately plated onto a 96-well format (1e6/well) in Complete RPMI. Three-fold serial dilutions were added to the cells from 300 nM to 0.4 nM for anti-SIRP-α antibody (heavy chain comprising the sequence of SEQ ID NO:66 and light chain comprising the sequence of SEQ ID NO:75) and anti-SIRP-α conjugate (heavy chain comprising the sequence of SEQ ID NO:66 and a light chain comprising the sequence of SEQ ID NO:75, conjugated to CpG oligo 7-7 (SEQ ID NO:35)). Free CpG 7-7 (SEQ ID NO:35) was titrated from 3 μM to 4.12 nM. Cells were incubated at 37° C. under 5% CO2 for 24 hours. […] Cells were analyzed on Attune NxT Flow Cytometer (Thermo Fisher), with subsequent data analysis by Flowjo 10.7 (Treestar). […] Levels of activation marker were assessed by median fluorescent intensity.

Series [5] has as its system dendritic cells. Kind of series: Dendritic cell activation (CD40) in cynomolgus PBMCs. The class given is cell-based. The note with it: 48 hours. On the procedure:
Cynomolgus whole blood was received from BioIVT and diluted 1:3 with Phosphate Buffered Saline (PBS, Gibco). Diluted blood was underplayed with 15 mL 90% Ficoll-Paque (GE Healthcare) in PBS solution. Tubes were centrifuged for 30 minutes at 400×g with break off. Cells were collected from the interface, resuspended and washed in FACS buffer (PBS with 0.5% Bovine Serum Albumin (Gibco)). After one wash, cells were resuspended in ACK lysis buffer (Gibco) for 15 min at room temperature, washed in FACs buffer and centrifuged before repeating. Purified PBMCs were resuspended in Complete RPMI (RPMI, 10% FBS, 1× Pen/Strep, 1× Glutamax). PBMCs were immediately plated onto a 96-well format (0.3e6/well) in Complete RPMI. Three-fold serial dilutions were added to the cells from 1 μM to 1.4 nM of CpG oligonucleotide and 300 nM to 0.4 nM of anti-SIRP-α antibody (heavy chain comprising the sequence of SEQ ID NO:66 and light chain comprising the sequence of SEQ ID NO:75) and the corresponding antibody:CpG conjugate (heavy chain comprising the sequence of SEQ ID NO: 66 and light chain comprising the sequence of SEQ ID NO:75, conjugated to CpG oligo 7-7 (SEQ ID NO:35)) at 37° C. under 5% CO2 for 48 hours. […] Cells were analyzed on Attune NxT Flow Cytometer (Thermo Fisher), with subsequent data analysis by Flowjo 10.7 (Treestar). […] Levels of activation marker were assessed by median fluorescent intensity.

For series [6], the system named is THP-1-Dual hTLR9 cell line, interferon regulatory factor (IRF) pathway. Kind of series: THP-1-Dual hTLR9 reporter assay, IRF pathway (secreted Lucia luciferase). The class given is cell-based. The settings on record: 24 hours; F(ab′)2 anti-human IgG Fcγ cross-linking agent; read-out: EC50 of IRF induction. As for the experimental part: THP-1-Dual hTLR9 cell line (thpd-nfis, Invivogen) was derived from human THP-1 monocytes engineered to overexpress the human TLR9 (hTLR9) gene and featuring two reporter genes allowing for simultaneous assessment of the NF-kB pathway by monitoring the activity of an inducible secreted embryonic alkaline phosphatase (SEAP), and the interferon regulatory factor (IRF) pathway by monitoring the activity of an inducible secreted Lucia luciferase. Briefly, 250,000 cells in 100 uL of growth media (RPMI 1640 (Gibco), 2 mM L-glutamine (Gibco), 25 mM HEPES (Gibco), 10% FBS (Gibco), 100 U/mL penicillin (Gibco), 100 ug/mL streptomycin (Gibco), 100 ug/mL Normacin (Invivogen) were plated in 96-well flat-bottom plates (Nunc). An 8 step 2-fold serial dilution of anti-SIRP-α antibody or anti-SIRP-α antibody conjugate was added to cells in 50 μL for a final concentration range of 200 nM-1.56 nM. 10 μg/mL of a F(ab′)2 fragment goat anti-human, IgG Fcγ fragment specific (Jackson Immuno Research) was added in 50 μL of growth media as a cross-linking agent. Cells were incubated at 37 C for 24 hours. NF-kB and IRF induction from supernatant was detected according to manufacturer's protocol. EC50 values were derived using three-parameter […] regression curve fir in Prism 9 (GraphPad), and data were presented as fold-over media control. […]

pEC50: −log10 of the molar value.

For “CpG 7-7 (DNA TCGTCGTGTCGTTT; modified_base 1 OTHER; 5-Bromo-2'-deoxyuridine; modified_base 13..14 OTHER; 2'-O-Methyl-Thymidine; modified_base 1..4 OTHER; phosphorothioate linkages; misc_feature 4^5 phosphotriester linker-PEG24-NH2; modified_base 5..9 OTHER; modified_base 9^10 OTHER; phosphorodithioate linkage; modified_base 10..14 OTHER; misc_feature 14 3' spacer C3)”, in series [1], the “activity in NFkb reporter assay” value is on record as “significantly higher activity”. Also, the “activity as observed by CD40 expression” value in series [2] is on record as “higher activities”. Moreover, the “activation of CD40” value in series [3] was “higher activation of CD40”. Also, the “surface marker expression (CD40) on dendritic cells” value in the series on dendritic cells [4] and in the series with dendritic cells [5] was “potent TLR9 agonist with targeted dendritic cell activation across species” in each case. Also, in series [6], the negative-log EC50 (pEC50) (in general, the negative decadic logarithm of the EC50, by convention in mol/L) is 7.08.

For the origin of these results see patent publication US20240374746A1, “SIRP-ALPHA ANTIBODIES AND CONJUGATES” (Tallac Therapeutics, Inc., priority 2021, published 2024).
